# Tested on: asymmetric di-methyl PABP1 in RKO cells
# Assay: RKO methylation assay, In Cell Western (ICW) for asymmetric di-methyl PABP1
# Type: cell-based
# Details: Cellular potencies, ICW PABP1me2a
# Method in brief: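 RKO cells treated with compound for 48 h at 37 °C, then fixed, permeabilized and immunostained for asymmetric di-methyl PABP1, with DRAQ5 as DNA stain. Infrared 700/800 nm signal ratio normalized to DMSO and 20 μM reference-compound controls; IC50 from triplicate wells.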
"IC50 (Homo sapiens, RKO) [µM]",IC50 [µM],Structure (SMILES)
< 5,,CNC[C@@H](O)COc1ccc(Cl)c(-c2nc(NC[C@@H]3CCOC3)c(C)c(-c3c(C)noc3C)n2)c1 [Example 228-3]
< 5,,CCOC(=O)N1CC[C@@H](Nc2nc(-c3cccc(OCC(O)CNC)c3)nc(-c3c(C)noc3C)c2C)[C@H](F)C1 (stereo partly drawn) [Example 229-1a]
< 5,,CNC[C@@H](O)COc1ccc(Cl)c(-c2nc(-c3c(C)noc3C)c(Cl)c(N3CC4(CCOCC4)C3)n2)c1 [Example 229-3]
< 5,,CCS(=O)(=O)N1CCOC[C@@H]1CNc1nc(-c2cccc(OCC(O)CNC)c2)nc(-c2c(C)noc2C)c1C (stereo partly drawn) [Example 230-1a]
< 5,,CNC[C@@H](O)COc1ccc(Cl)c(-c2nc(NC3CC(C)C3)c(C)c(-c3c(C)noc3C)n2)c1 (stereo partly drawn) [Example 230-3]
< 5,,CNCC(O)COc1cccc(-c2nc(N[C@H]3C[C@H](C(C)(C)O)C3)c(C)c(-c3c(C)noc3C)n2)c1 (stereo partly drawn) [Example 231-1a]
< 5,,CNC[C@@H](O)COc1ccc(Cl)c(-c2nc(-c3c(C)noc3C)c(C)c(N3Cc4cn[nH]c4C3)n2)c1 [Example 231-3]
< 5,,CNCC(O)COc1cccc(-c2nc(N[C@H]3C[C@@H](C(C)(C)O)C3)c(C)c(-c3c(C)noc3C)n2)c1 (stereo partly drawn) [Example 232-1a]
< 5,,CNC[C@@H](O)COc1ccc(Cl)c(-c2nc(-c3c(C)noc3C)c(C)c(N3Cc4cc(OC)cnc4C3)n2)c1 [Example 232-3]
10 to 20,,CNCC(O)COc1cccc(-c2nc(Nc3cc(C)on3)c(C)c(-c3c(C)noc3C)n2)c1 (stereo not drawn) [Example 233-1a]
< 5,,CNC[C@@H](O)COc1ccc(Cl)c(-c2nc(NC[C@H]3CCOC3)c(C)c(-c3c(C)noc3C)n2)c1 [Example 233-3]
< 5,,CNCC(O)COc1cccc(-c2nc(N[C@H]3CC[C@H](OC)C3)c(C)c(-c3c(C)noc3C)n2)c1 (stereo partly drawn) [Example 234-1a]
< 5,,CNC[C@@H](O)COc1ccc(Cl)c(-c2nc(-c3c(C)noc3C)c(C)c(N3CCC4(CC4)C3)n2)c1 [Example 234-3]
< 5,,CNCC(O)COc1cccc(-c2nc(-c3c(C)noc3C)c(C)c(N3CCN(Cc4ccccc4)C(C(F)F)C3)n2)c1 (stereo not drawn) [Example 235-1a]
< 5,,CNC[C@@H](O)COc1ccc(Cl)c(-c2nc(-c3c(C)noc3C)c(C)c(N3CC4CC4C3)n2)c1 (stereo partly drawn) [Example 235-3]
< 5,,CNCC(O)COc1cccc(-c2nc(NC3CCOCC3)c(C)c(-c3c(C)noc3C3CC3)n2)c1 (stereo not drawn) [Example 236-1a]
< 5,,CNC[C@@H](O)COc1ccc(Cl)c(-c2nc(-c3c(C)noc3C)c(C)c(N3Cc4c(C)nn(C)c4C3)n2)c1 [Example 236-3]
10 to 20,,CNCC(O)COc1cccc(-c2nc(NC3CN(CC(F)F)C3)c(C)c(-c3c(C)noc3C)n2)c1 (stereo not drawn) [Example 237-1a]
,< 5,CNC[C@@H](O)COc1ccc(Cl)c(-c2nc(-c3c(C)noc3C)c(C)c(N3Cc4c(C)nn(C)c4C3)n2)c1 [Example 237-3]
10 to 20,,CCOC(=O)N1CC(Nc2nc(-c3cccc(OCC(O)CNC)c3)nc(-c3c(C)noc3C)c2C)C1 (stereo not drawn) [Example 238-1a]
< 5,,CNC[C@@H](O)COc1ccc(Cl)c(-c2nc(-c3c(C)noc3C)c(C)c(N3CCC3)n2)c1 [Example 238-3]
< 5,,CNCC(O)COc1cccc(-c2nc(NC3CCOC(C)C3)c(C)c(-c3c(C)noc3C)n2)c1 (stereo not drawn) [Example 239-1a]
< 5,,CNC[C@@H](O)COc1ccc(Cl)c(-c2nc(-c3cnn(C)c3)c(C)c(-c3c(C)noc3C)n2)c1 [Example 239-3]
< 5,,CNCC(O)COc1cccc(-c2nc(NC3CCN(C4COC4)C3)c(C)c(-c3c(C)noc3C)n2)c1 (stereo not drawn) [Example 240-1a]
< 5,,CCO[C@@H]1CCC[C@H]1Nc1nc(-c2cc(OC[C@H](O)CNC)ccc2Cl)nc(-c2c(C)noc2C)c1C [Example 240-3]
< 5,,CNCC(O)COc1cccc(-c2nc(NC3CCCC3)c(C)c(-c3c(C)noc3C)n2)c1 (stereo not drawn) [Example 241-1a]
< 5,,CCO[C@@H]1CCC[C@H]1N(CC)c1nc(-c2cc(OC[C@H](O)CNC)ccc2Cl)nc(-c2c(C)noc2C)c1C [Example 241-3]
